Tests used:
Assay type in all cases: biochemical
[1] = molecular target: T1, Caspase-7 (Homo sapiens, UniProt P55210); test: Kinetic compound screening, progress curve method, caspase-7; details: for Ki(app) Caspase-7: Table III, Ki(app) = Kass or Kobs/I, 5 nM active caspase-7; for Caspase-7 Ki (app): Table IV
T1 sequence (P55210 1-303): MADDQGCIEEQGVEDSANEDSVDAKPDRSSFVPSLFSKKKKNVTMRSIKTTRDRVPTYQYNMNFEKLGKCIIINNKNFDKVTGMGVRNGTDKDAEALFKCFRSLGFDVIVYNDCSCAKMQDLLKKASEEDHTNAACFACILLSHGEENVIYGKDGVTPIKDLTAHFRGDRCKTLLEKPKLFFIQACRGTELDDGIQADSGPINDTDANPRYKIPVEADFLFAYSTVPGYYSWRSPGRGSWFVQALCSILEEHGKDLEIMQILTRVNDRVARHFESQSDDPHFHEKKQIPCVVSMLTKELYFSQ
In short: (§1)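 Progress-curve method under pseudo-first-order kinetics, giving Ki(app) (kobs/I, M^−1s^−1), in caspase reaction buffer. Active enzyme at 5 nM (caspase-3, -7), 10 nM (caspase-8) or 50 nM (caspase-9), preactivated at 37 °C for 5, 10 or 40 min respectively. Some caspase-9 compounds also run with 1 M sodium citrate replacing sucrose.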

[2] = molecular target: Caspase-8 (Homo sapiens, UniProt Q14790); test: Kinetic compound screening, progress curve method, caspase-8; details: for Ki(app) Caspase-8: Table III, Ki(app) = Kass or Kobs/I, 10 nM active caspase-8; for Caspase-8 Ki (app): Table IV, NI = no inhibition at concentrations tested
Caspase-8, sequence (Q14790 217-479): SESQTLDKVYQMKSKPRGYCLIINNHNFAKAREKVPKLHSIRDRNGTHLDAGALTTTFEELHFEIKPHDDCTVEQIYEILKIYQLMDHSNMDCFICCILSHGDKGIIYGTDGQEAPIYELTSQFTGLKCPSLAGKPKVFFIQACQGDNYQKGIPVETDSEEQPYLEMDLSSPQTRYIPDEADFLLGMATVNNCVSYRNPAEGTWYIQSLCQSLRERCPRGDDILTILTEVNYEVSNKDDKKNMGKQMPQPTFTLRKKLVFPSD
In short: as §1

[3] = molecular target: T2, Caspase-3 (Homo sapiens, UniProt P42574); test: Kinetic compound screening, progress curve method, caspase-3; details: for Ki(app) Caspase-3: Table III, Ki(app) = Kass or Kobs/I, 5 nM active caspase-3; for Caspase-3 Ki(app): Table IV
T2 sequence (P42574 29-175 limits assumed): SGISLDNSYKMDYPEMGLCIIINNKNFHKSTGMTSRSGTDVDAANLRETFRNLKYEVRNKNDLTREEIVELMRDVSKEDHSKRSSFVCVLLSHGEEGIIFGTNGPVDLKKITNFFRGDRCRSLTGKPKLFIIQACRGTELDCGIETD
T2 sequence (P42574 176-277 limits assumed): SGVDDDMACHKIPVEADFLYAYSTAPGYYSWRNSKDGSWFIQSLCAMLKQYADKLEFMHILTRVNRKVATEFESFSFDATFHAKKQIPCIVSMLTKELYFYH
In short: as §1

Compound: Cc1cccc(C)c1C(=O)OCC(=O)[C@H](CC(=O)O)NC(=O)[C@@H](NC(=O)[C@H](Cc1ccncc1)NC(=O)[C@H](CC(=O)O)NC(=O)Cc1ccc(O)c([N+](=O)[O-])c1)C(C)C [AB06, Np-D-3-V-D-DMBA]
- Ki(app) Caspase-7 [1]: 968,070 M^−1s^−1
- Caspase-7 Ki (app) [1]: 968,070 M-1s-1
- Ki(app) Caspase-8 [2]: 32,909 M^−1s^−1
- Caspase-8 Ki (app) [2]: 32,909 M-1s-1
- Ki(app) Caspase-3 [3]: 7,456,511 M^−1s^−1
- Caspase-3 Ki(app) [3]: 7,456,511 M-1s-1

Compound: Bio-EVD-AOMK [KMB01, reference compound]
- Ki(app) Caspase-7 [1]: 288,213 M^−1s^−1
- Caspase-7 Ki (app) [1]: 288,213 M-1s-1
- Ki(app) Caspase-8 [2]: 164,052 M^−1s^−1
- Caspase-8 Ki (app) [2]: 164,052 M-1s-1
- Ki(app) Caspase-3 [3]: 577,913 M^−1s^−1
- Caspase-3 Ki(app) [3]: 577,913 M-1s-1

Compound: Cc1cccc(C)c1C(=O)OCC(=O)[C@H](CC(=O)O)NC(=O)[C@@H](NC(=O)[C@H](CCC(=O)O)NC(=O)[C@H](CC(=O)O)NC(=O)Cc1ccc(O)c([N+](=O)[O-])c1)C(C)C [AB09, Np-D-E- V-D-DMBA]
- Ki(app) Caspase-7 [1]: 1,529,040 M^−1s^−1
- Caspase-7 Ki (app) [1]: 1,529,040 M-1s-1
- inhibition of caspase-8, in words [2]: strong activity towards caspase-8
- Ki(app) Caspase-8 [2]: 1,077,839 M^−1s^−1
- Caspase-8 Ki (app) [2]: 1,077,839 M-1s-1
- Ki(app) Caspase-3 [3]: 10,922,261 M^−1s^−1
- Caspase-3 Ki(app) [3]: 10,922,261 M-1s-1

— patent US20100068150A1, “Selective Caspase Inhibitors” (The Board of Trustees of the Leland Stanford Junior …, priority 2006, published 2010)
